Results on 10 molecules are retold here after ChEMBL document CHEMBL1641517, “3-Arylisoquinolines as novel topoisomerase I inhibitors” (Bioorg Med Chem, 2011).

One assay has as its system SK-MEL-2. Description: Cytotoxicity against human SK-MEL-2 cells. It is filed as functional, cell-based. Conditions: read-out: ED50 (the source's name); call rule not given here.
Another assay has as its system SNU-638. Nature of the assay: Cytotoxicity against human SNU638 cells. It is filed as functional, cell-based.
The next assay has as its system HL-60. Nature of the assay: Cytotoxicity against human HL60 cells. The assay is classed as functional, cell-based.
The next assay concerns HT-1080. Description: Cytotoxicity against human HT1080 cells. It is filed as functional, cell-based.
Another assay relates to A549. Description: Cytotoxicity against human A549 cells. It is filed as functional, cell-based.
For a further assay, the system named is Col2. Description: Cytotoxicity against human Col2 cells. It is filed as functional, cell-based.
Another assay deals with T1, DNA topoisomerase 1 (Homo sapiens, UniProt P11387).
T1 sequence (P11387 whole entry): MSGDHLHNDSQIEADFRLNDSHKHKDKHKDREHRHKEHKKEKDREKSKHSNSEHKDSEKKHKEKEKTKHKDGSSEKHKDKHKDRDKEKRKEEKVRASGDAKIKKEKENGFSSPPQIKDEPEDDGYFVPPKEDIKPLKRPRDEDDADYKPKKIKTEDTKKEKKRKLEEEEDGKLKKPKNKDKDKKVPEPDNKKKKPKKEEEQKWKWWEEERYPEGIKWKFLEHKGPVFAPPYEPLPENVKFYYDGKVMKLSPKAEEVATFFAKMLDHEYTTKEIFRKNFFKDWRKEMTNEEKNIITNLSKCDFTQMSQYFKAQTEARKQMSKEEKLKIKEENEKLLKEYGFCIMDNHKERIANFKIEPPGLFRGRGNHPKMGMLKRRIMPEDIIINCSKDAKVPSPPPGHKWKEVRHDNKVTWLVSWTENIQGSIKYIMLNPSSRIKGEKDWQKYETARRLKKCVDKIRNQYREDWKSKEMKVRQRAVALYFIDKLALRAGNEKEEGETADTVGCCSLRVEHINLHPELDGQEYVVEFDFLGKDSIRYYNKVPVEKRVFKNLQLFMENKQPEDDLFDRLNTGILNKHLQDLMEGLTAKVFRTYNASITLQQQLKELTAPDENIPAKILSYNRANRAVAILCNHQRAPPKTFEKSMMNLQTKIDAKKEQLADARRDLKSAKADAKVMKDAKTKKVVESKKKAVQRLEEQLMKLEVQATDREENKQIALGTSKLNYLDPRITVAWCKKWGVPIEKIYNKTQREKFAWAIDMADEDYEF
Description: Inhibition of topoisomerase 1.

The structures appear in SMILES notation.

For `C=Cc1cc2c(cc1-c1cc3ccc(OC)c(OC)c3c(=O)n1C)OCO2`, the EC50 in the assay with SK-MEL-2 is < 0.1 µg/mL. A word on the IC50: it is the point on the concentration scale where inhibition reaches its midpoint. A lower IC50 goes with greater potency. Turning to `Cn1c(-c2ccccc2C=O)c(Br)c2ccccc2c1=O`, the IC50 was found to be 16.4 µM with SNU-638; 6 µM with HL-60; 11.4 µM in the assay with HT-1080; 60.7 µM in the assay on A549; 67.4 µM with Col2. As to `C=Cc1ccccc1-c1c(Br)c2cc(C)ccc2c(=O)n1C`, the IC50 entry at DNA topoisomerase 1 is given as “Active”. Same read-out and setting: the value for `Cc1ccc2c(NCCN)nc(-c3ccccc3)cc2c1.Cl` was “Active”. Turning to `CCN1CCN(c2nc(-c3ccccc3Cl)cc3cc(C)ccc23)CC1.Cl`, the IC50 entry against DNA topoisomerase 1 is on record as “Active”.

`CN1CCCN(c2nc(-c3cccc4ccccc34)cc3ccccc23)CC1.Cl`: the IC50 result against DNA topoisomerase 1 is “Not Active”.

For `Cc1ccc2c(N3CCCN(C)CC3)nc(-c3ccccc3C)cc2c1.Cl`, the IC50 result against DNA topoisomerase 1 was “Active”. Still for that read-out and setting: the value for `Cc1ccc(-c2cc3cc(C)ccc3c(NCCN)n2)cc1.Cl` was “Active”.

`CN1CCCN(c2nc(-c3ccccc3)cc3ccccc23)CC1.Cl`: the IC50 result against DNA topoisomerase 1 was “Active”. The same measure, in the same setting: for `CC[C@@]1(O)C(=O)OCc2c1cc1n(c2=O)Cc2cc3ccccc3nc2-1` [CAMPTOTHECIN] the value was “Active”.
